Data published in paper PMC7450057, “Enhancing intracellular accumulation and target engagement of PROTACs with reversible covalent chemistry” (Nature Communications, 2020).
Values joined by “and” are separate entries in the source; they are usually repeats but may differ in a detail not shown here. Equal values may be shown once.

What was measured:
MOLM-14 cells [1] = experiment: AlamarBlue cell viability assay, MOLM-14; conditions: for Cell viability, MOML-14: Supplementary Figure 7, replicates
Procedure: The IC50 was calculated using GraphPad Prism software with a four-parameter dose-response curve fit.

BTK = BTK (Homo sapiens, UniProt Q06187); experiment: In vitro BTK kinase assay (PhosphoSens); assay type: biochemical; design: purchased SignalChem B10-10H-10
Procedure: BTK kinase activity inhibition IC50 was measured by PhosphoSens® Kinase Assay Kit (Assay Quant Technologies Inc., Cat.# CSKS-AQT0101K). […] Active recombinant BTK was purchased from SignalChem (Cat.# B10-10H-10). All the drugs (3 warhead control and 4 PROTACs) were dissolved in DMSO (10 mM). […] To calculate the IC50, subtract the background fluorescence determined with the “no kinase” control for each time point from the total signal to obtain corrected Relative Fluorescence Units (RFU) values. Plot the corrected RFU vs. Time for each inhibitor concentration and determine the initial reaction rates (slope of the linear portion) for each progress curve for each inhibitor concentration. Then plot velocity (RFU corrected/minute) vs [inhibitor] and determine the IC50 using a 4-parameter logistic fit.

MOLM-14 cells [2] = experiment: Quantification of intracellular drug concentration by LC-MS; assay type: in vitro ADME; conditions: for Intracellular concentration: Concentration of compound, AVE / intracellular amount, AVE / intracellular amount / Intracellular concentration: Concentration of compound: 200 nM; for Intracellular concentration: Concentration of compound, AVE / intracellular amount, AVE: average of 3 replicates; for intracellular amount: initial amount 0.4000 nmol; for Intracellular concentration: Concentration of compound: sample volume 400 µL
Procedure: MOLM-14 cells were seeded at a density of 0.5 × 10^6 per mL in 2 mL medium. […] The samples were immediately centrifuged at 12,000 × g for 15 min at 4 °C, then removing the supernatant. In all, 400 μL of NP-40 lysis buffer was added to the cell pellet and mixed thoroughly. The mixtures were rocked for 1 h at 4 °C and centrifuged at 12,000 × g for 15 min at 4 °C. Then the supernatant was transferred to new EP tubes. In total, 20 µL supernatant was extracted with 180 µL of acetonitrile (containing internal standard: 250 nM of RNC-Ctrl) and centrifuged at the same conditions described above. Take 75 μL of supernatant for liquid chromatography-mass spectrometry analysis.
The mass spectrometer was operated in positive SIM ion mode (fragmentor 120 V; cycle time 0.6 s/cycle; Agilent Technologies 6130 Quadrupole LC/MS).

NanoLuc-CRBN fusion = target: T1, NanoLuc-CRBN fusion (Homo sapiens, UniProt Q96SW2); experiment: NanoBRET CRBN in-cell target engagement assay; assay type: cell-based; conditions: for NanoBRET(%): Figure 3b
T1 construct: host or cells: HEK 293T/17
Procedure: The target engagement assay for BTK or CRBN was from Promega (BTK kit, Cat. No. N2500; CRBN kit, Cat. No. CS1810C136) and was performed according to the manufacture’s instruction with some modifications. […] After 2 h incubation, the 3X Nano-Glo® Substrate with NanoLuc® extracellular inhibitor were added to cells and developed for 3 min at room temperature. BRET signals were collected using a BioTek SYNERGY H1 microplate reader equipped with a 450/80-nm BP filter for donor emission and a 610-nm LP filter for acceptor emission. BRET Ratio was calculated with the equation: [(Acceptor sample/Donor sample)–(Acceptor no tracer control/Donor no tracer control)] × 1000. The IC50 of the compound against its BTK or CRBN tracer was calculated using GraphPad Prism software.

T1 sequence (Q96SW2 whole entry, the tested form may be a part): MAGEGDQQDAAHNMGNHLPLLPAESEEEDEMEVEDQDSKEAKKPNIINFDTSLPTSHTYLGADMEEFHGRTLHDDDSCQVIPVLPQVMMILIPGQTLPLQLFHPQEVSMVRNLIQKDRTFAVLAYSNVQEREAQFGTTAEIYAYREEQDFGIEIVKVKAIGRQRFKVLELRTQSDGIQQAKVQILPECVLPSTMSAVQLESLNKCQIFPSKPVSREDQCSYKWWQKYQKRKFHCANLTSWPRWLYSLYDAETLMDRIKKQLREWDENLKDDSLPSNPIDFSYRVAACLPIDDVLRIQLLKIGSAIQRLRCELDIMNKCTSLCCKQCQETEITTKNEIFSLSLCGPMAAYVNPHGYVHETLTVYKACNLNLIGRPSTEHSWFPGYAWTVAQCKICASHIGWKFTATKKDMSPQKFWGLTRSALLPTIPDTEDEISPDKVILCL
T1 sequence (Q16531 whole entry partner, the tested form may be a part): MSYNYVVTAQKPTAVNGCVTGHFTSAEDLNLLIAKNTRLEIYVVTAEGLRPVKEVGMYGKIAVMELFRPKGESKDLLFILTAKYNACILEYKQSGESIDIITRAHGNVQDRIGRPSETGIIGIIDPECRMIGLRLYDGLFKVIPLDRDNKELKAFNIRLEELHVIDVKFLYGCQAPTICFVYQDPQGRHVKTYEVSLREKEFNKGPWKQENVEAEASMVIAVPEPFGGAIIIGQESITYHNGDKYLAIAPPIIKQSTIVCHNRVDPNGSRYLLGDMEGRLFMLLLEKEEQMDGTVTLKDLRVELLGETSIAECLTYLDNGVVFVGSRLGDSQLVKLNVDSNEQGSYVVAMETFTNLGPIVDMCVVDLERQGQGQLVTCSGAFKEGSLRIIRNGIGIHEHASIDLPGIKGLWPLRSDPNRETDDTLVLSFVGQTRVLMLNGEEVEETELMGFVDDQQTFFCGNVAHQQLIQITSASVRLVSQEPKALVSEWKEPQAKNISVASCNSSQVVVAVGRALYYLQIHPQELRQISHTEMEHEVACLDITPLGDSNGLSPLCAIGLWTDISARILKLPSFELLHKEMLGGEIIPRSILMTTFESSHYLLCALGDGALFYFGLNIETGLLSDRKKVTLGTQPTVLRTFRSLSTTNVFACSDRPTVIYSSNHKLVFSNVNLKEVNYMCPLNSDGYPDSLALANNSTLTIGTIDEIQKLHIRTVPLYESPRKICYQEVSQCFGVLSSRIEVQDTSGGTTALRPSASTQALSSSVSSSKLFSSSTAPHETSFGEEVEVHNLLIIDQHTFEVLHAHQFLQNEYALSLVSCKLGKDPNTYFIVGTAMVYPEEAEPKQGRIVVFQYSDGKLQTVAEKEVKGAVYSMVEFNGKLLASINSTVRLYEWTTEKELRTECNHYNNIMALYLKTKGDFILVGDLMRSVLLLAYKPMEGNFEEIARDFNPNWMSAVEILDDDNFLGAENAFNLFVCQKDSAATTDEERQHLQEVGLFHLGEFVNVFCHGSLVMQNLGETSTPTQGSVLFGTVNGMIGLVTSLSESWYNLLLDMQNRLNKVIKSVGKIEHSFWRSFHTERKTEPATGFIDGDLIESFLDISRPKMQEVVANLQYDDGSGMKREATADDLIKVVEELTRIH
Sequence of BTK (Q06187 whole entry): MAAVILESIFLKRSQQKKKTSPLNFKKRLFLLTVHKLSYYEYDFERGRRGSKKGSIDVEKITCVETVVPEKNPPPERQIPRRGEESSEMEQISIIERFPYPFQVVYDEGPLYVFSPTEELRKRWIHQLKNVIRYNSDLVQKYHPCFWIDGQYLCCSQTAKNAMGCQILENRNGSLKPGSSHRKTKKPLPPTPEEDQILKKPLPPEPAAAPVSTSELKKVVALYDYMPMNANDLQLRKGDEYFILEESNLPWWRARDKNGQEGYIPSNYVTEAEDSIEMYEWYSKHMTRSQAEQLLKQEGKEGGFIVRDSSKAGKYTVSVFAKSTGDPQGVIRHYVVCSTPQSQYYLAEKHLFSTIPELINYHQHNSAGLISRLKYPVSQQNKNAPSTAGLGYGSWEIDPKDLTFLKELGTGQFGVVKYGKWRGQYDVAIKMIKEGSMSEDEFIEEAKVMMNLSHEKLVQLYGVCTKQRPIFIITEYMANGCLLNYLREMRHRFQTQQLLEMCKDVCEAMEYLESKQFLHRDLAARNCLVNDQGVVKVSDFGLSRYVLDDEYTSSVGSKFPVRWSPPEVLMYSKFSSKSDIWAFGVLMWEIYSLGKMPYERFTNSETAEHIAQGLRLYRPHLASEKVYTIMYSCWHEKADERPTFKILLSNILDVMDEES

CN(CC=CC(=O)N1CCCC(n2nc(-c3ccc(Oc4ccccc4)cc3)c3c(N)ncnc32)C1)CCCNC(=O)CNc1cccc2c1C(=O)N(C1CCC(=O)NC1=O)C2=O (centres unmarked) [IRC-1]
IC50 (MOLM-14 cells [1]; Homo sapiens, MOLM-14, 72 h, read-out: Cell viability IC50, MOLM-14 cells, 72 h, Alamar Blue): 2700 nM | Cell viability, MOML-14 (MOLM-14 cells [1]; drug concentration 1.00E-05 M): 18.0378 and 23.8364 and 27.2416 and 22.4354 and 21.8906 | Cell viability, MOML-14 (MOLM-14 cells [1]; drug concentration 1.60E-08 M): 95.6375 and 84.8576 and 100.21 and 79.6428 and 95.3845 | Cell viability, MOML-14 (MOLM-14 cells [1]; drug concentration 2.00E-06 M): 77.6385 and 69.5439 and 88.1655 and 70.6919 and 85.8499 | Cell viability, MOML-14 (MOLM-14 cells [1]; drug concentration 3.20E-09 M): 83.1063 and 84.2544 and 98.5173 and 96.2017 and 79.9735 | Cell viability, MOML-14 (MOLM-14 cells [1]; drug concentration 4.00E-07 M): 95.365 and 106.398 and 86.1807 and 91.7653 and 81.4134 | Cell viability, MOML-14 (MOLM-14 cells [1]; drug concentration 6.40E-10 M): 91.6096 and 88.3017 and 105.931 and 90.734 and 74.6225 | Cell viability, MOML-14 (MOLM-14 cells [1]; drug concentration 8.00E-08 M): 76.0624 and 92.5825 and 94.7813 and 82.8144 and 77.7553 | IC50 (BTK; AssayQuant BTK assay kit, 2.5 nM BTK, 1 mM ATP, duplicates, read-out: BTK inhibition IC50): 0.8 nM | activity at 2.56 pM (BTK; Supplementary Figure 5, drug concentration 2.56 pM, replicates, read-out: Inhibition(%)): 86.2% | activity at 12.8 pM (BTK; Supplementary Figure 5, drug concentration 12.8 pM, replicates, read-out: Inhibition(%)): 77.7% | activity at 64 pM (BTK; Supplementary Figure 5, drug concentration 64 pM, replicates, read-out: Inhibition(%)): 78.1% | activity at 0.00032 µM (BTK; Supplementary Figure 5, drug concentration 320 pM, replicates, read-out: Inhibition(%)): 65.7% | activity at 0.0016 µM (BTK; Supplementary Figure 5, drug concentration 1600 pM, replicates, read-out: Inhibition(%)): 28% | activity at 0.008 µM (BTK; Supplementary Figure 5, drug concentration 8000 pM, replicates, read-out: Inhibition(%)): 4.02% | activity at 0.2 µM (BTK; Supplementary Figure 5, drug concentration 200000 pM, replicates, read-out: Inhibition(%)): 0.667% | activity at 1 µM (BTK; Supplementary Figure 5, drug concentration 1000000 pM, replicates, read-out: Inhibition(%)): 2.16% | diminished BTK inhibitory activity compared with corresponding warhead control (BTK; ratio of IC50 values): < 3 fold | Intracellular concentration: Concentration of compound, AVE (MOLM-14 cells [2]; 5 min): 0.0785 µM | intracellular amount, AVE (MOLM-14 cells [2]; 5 min): 0.0314 nmol | intracellular amount (MOLM-14 cells [2]; 5 min, single replicates): 0.0285 nmol and 0.0325 nmol and 0.0332 nmol | Intracellular concentration: Concentration of compound (MOLM-14 cells [2]; 5 min, single replicates): 0.0713 µM and 0.0812 µM and 0.0831 µM | Intracellular concentration: Concentration of compound, AVE (MOLM-14 cells [2]; 15 min): 0.0779 µM | intracellular amount, AVE (MOLM-14 cells [2]; 15 min): 0.0311 nmol | intracellular amount (MOLM-14 cells [2]; 15 min, single replicates): 0.0307 nmol and 0.0322 nmol and 0.0305 nmol | Intracellular concentration: Concentration of compound (MOLM-14 cells [2]; 15 min, single replicates): 0.0767 µM and 0.0806 µM and 0.0763 µM | Intracellular concentration: Concentration of compound, AVE (MOLM-14 cells [2]; 30 min): 0.0702 µM | intracellular amount, AVE (MOLM-14 cells [2]; 30 min): 0.0281 nmol | intracellular amount (MOLM-14 cells [2]; 30 min, single replicates): 0.0259 nmol and 0.0296 nmol and 0.0288 nmol | Intracellular concentration: Concentration of compound (MOLM-14 cells [2]; 30 min, single replicates): 0.0648 µM and 0.0740 µM and 0.0719 µM | Intracellular concentration: Concentration of compound, AVE (MOLM-14 cells [2]; 60 min): 0.0651 µM | intracellular amount, AVE (MOLM-14 cells [2]; 60 min): 0.0260 nmol | intracellular amount (MOLM-14 cells [2]; 60 min, single replicates): 0.0274 nmol and 0.0266 nmol and 0.0240 nmol | Intracellular concentration: Concentration of compound (MOLM-14 cells [2]; 60 min, single replicates): 0.0686 µM and 0.0666 µM and 0.0601 µM | Intracellular concentration: Concentration of compound, AVE (MOLM-14 cells [2]; 90 min): 0.0717 µM | intracellular amount, AVE (MOLM-14 cells [2]; 90 min): 0.0287 nmol | intracellular amount (MOLM-14 cells [2]; 90 min, single replicates): 0.0275 nmol and 0.0290 nmol and 0.0295 nmol | Intracellular concentration: Concentration of compound (MOLM-14 cells [2]; 90 min, single replicates): 0.0688 µM and 0.0725 µM and 0.0738 µM | Intracellular concentration: Concentration of compound, AVE (MOLM-14 cells [2]; 120 min): 0.0652 µM | intracellular amount, AVE (MOLM-14 cells [2]; 120 min): 0.0261 nmol | intracellular amount (MOLM-14 cells [2]; 120 min, single replicates): 0.0239 nmol and 0.0281 nmol and 0.0261 nmol | Intracellular concentration: Concentration of compound (MOLM-14 cells [2]; 120 min, single replicates): 0.0598 µM and 0.0703 µM and 0.0653 µM | Intracellular concentration: Concentration of compound, AVE (MOLM-14 cells [2]; 240 min): 0.0595 µM | intracellular amount, AVE (MOLM-14 cells [2]; 240 min): 0.0238 nmol | intracellular amount (MOLM-14 cells [2]; 240 min, single replicates): 0.0228 nmol and 0.0239 nmol and 0.0246 nmol | Intracellular concentration: Concentration of compound (MOLM-14 cells [2]; 240 min, single replicates): 0.0571 µM and 0.0598 µM and 0.0616 µM | Cellular concentration (MOLM-14 cells [2]; 5 min, Mean): 0.0314 nmol/million cells | Cellular concentration (MOLM-14 cells [2]; 5 min, single replicates, MOLM-14, 200 nM): 0.0285 nmol/million cells and 0.0325 nmol/million cells and 0.0332 nmol/million cells | Cellular concentration (MOLM-14 cells [2]; 15 min, Mean): 0.0311 nmol/million cells | Cellular concentration (MOLM-14 cells [2]; 15 min, single replicates, MOLM-14, 200 nM): 0.0307 nmol/million cells and 0.0322 nmol/million cells and 0.0305 nmol/million cells | Cellular concentration (MOLM-14 cells [2]; 30 min, Mean): 0.0281 nmol/million cells | Cellular concentration (MOLM-14 cells [2]; 30 min, single replicates, MOLM-14, 200 nM): 0.0259 nmol/million cells and 0.0296 nmol/million cells and 0.0288 nmol/million cells | Cellular concentration (MOLM-14 cells [2]; 60 min, Mean): 0.0260 nmol/million cells and 0.026 nmol/million cells | Cellular concentration (MOLM-14 cells [2]; 60 min, single replicates, MOLM-14, 200 nM): 0.0240 nmol/million cells and 0.0274 nmol/million cells and 0.0266 nmol/million cells and 0.024 nmol/million cells | Cellular concentration (MOLM-14 cells [2]; 90 min, Mean): 0.0287 nmol/million cells | Cellular concentration (MOLM-14 cells [2]; 90 min, single replicates, MOLM-14, 200 nM): 0.0290 nmol/million cells and 0.0275 nmol/million cells and 0.029 nmol/million cells and 0.0295 nmol/million cells | Cellular concentration (MOLM-14 cells [2]; 120 min, Mean): 0.0261 nmol/million cells | Cellular concentration (MOLM-14 cells [2]; 120 min, single replicates, MOLM-14, 200 nM): 0.0239 nmol/million cells and 0.0281 nmol/million cells and 0.0261 nmol/million cells | Cellular concentration (MOLM-14 cells [2]; 240 min, Mean): 0.0238 nmol/million cells | Cellular concentration (MOLM-14 cells [2]; 240 min, single replicates, MOLM-14, 200 nM): 0.0228 nmol/million cells and 0.0239 nmol/million cells and 0.0246 nmol/million cells | NanoBRET(%) (NanoLuc-CRBN fusion; 1.00E-05 M, triplicates): 14.8662% and 22.7538% and 22.1529% | NanoBRET(%) (NanoLuc-CRBN fusion; 1.60E-08 M, triplicates): 80.9317% and 101.051% and 94.8942% | NanoBRET(%) (NanoLuc-CRBN fusion; 2.00E-06 M, triplicates): 31.3092% and 33.6262% and 37.1463% | NanoBRET(%) (NanoLuc-CRBN fusion; 3.20E-09 M, triplicates): 91.4483% and 90.0848% | NanoBRET(%) (NanoLuc-CRBN fusion; 4.00E-07 M, triplicates): 56.7638% and 59.2904% | NanoBRET(%) (NanoLuc-CRBN fusion; 8.00E-08 M, triplicates): 86.864% and 89.7074% and 93.5853% | IC50 (NanoLuc-CRBN fusion; HEK-293 cells, CRBN tracer 0.5 µM, triplicates, read-out: CRBN target engagement IC50,TE): 860 nM | K′P,D (relative intracellular accumulation coefficient) (NanoLuc-CRBN fusion; Kd (CRBN)/IC50,TE (CRBN)): 1.7 | CRBN engagement (NanoLuc-CRBN fusion; at 400 nM): ~ 40% | intracellular accumulation of RC-1 relative to the compound (NanoLuc-CRBN fusion; from K′P,D values, CRBN (Table 2)): 10 fold | CRBN target engagement IC50 relative to that of RC-1 (NanoLuc-CRBN fusion; ratio compound/RC-1): 3 fold
